# According to US20220167627A1, “Microbial preparation of bacillus” (priority 2020, published 2022):
# Legend:
# rice seedlings = assay: IAA sensitivity test on rice seedlings; assay type: in vivo
# Experimental: Taking rice and lettuce for example, IAA sensitivity of the microbial preparation is tested in steps of: disinfecting and germinating rice seedlings; putting the rice seedlings in a sterilized Petri dish in which a filter paper is disposed; […]; moving the sterilized Petri dish into a plant growth box for 4 days; measuring an average height of buds of the rice seedlings and an average height of roots of the rice seedlings;
# lettuce = assay: IAA sensitivity test on lettuce; assay type: in vivo
# Experimental: Taking rice and lettuce for example, IAA sensitivity of the microbial preparation is tested in steps of: disinfecting seeds of the lettuce with 5% sodium hypochlorite and putting the seeds of the lettuce in another sterilized Petri dish in which a filter paper is disposed; adding 3 mL of 0.03 μM, 3 μM, 30 μM, and 300 μM of IAA aqueous solutions respectively; moving another sterilized Petri dish into another plant growth box for 3 days; and measuring a germination rate and a height of each lettuce and a length of a root of each lettuce.
structure (smiles),measurement,setting,value
O=C(O)Cc1c[nH]c2ccccc12 [IAA],growth of the roots of the rice seedlings,"rice seedlings; IAA 0.03 μM to 30 μM, 4 days, FIG. 1",does not promote a growth of the roots
same,growth of the roots of the rice seedlings,"rice seedlings; IAA 300 μM, 4 days, FIG. 1",limited
same,growth of the roots of the rice seedlings,rice seedlings; IAA within 0.00003 μM to 0.003 μM,do not grow obviously
same,growth of the lettuce seedlings,"lettuce; IAA 0.03 μM (lowest concentration), 3 days",reduces a growth of the lettuce seedlings
same,height of lettuce sprouts,"lettuce; IAA 0.03 μM, 3 days (no IAA: 5.3 mm)",3.5 mm
same,length of lettuce roots,"lettuce; IAA 0.03 μM, 3 days (no IAA: 14.8 mm)",8.8 mm
same,germination rate of seeds of the lettuce,"lettuce; IAA 300 μM, 3 days (no IAA: 78%)",13%
